How the values were obtained:
human recombinant GR = target: T1, human recombinant GR (Homo sapiens, UniProt P04150); assay: Human Glucocorticoid Receptor (GR) Fluorescence Polarisation (FP) Binding Assay; settings: Ki from IC50 by ligand depletion correction; displacement of Fluorome GS Red
T1 construct: purchased PanVera P2812
T1 sequence (P04150 1-777): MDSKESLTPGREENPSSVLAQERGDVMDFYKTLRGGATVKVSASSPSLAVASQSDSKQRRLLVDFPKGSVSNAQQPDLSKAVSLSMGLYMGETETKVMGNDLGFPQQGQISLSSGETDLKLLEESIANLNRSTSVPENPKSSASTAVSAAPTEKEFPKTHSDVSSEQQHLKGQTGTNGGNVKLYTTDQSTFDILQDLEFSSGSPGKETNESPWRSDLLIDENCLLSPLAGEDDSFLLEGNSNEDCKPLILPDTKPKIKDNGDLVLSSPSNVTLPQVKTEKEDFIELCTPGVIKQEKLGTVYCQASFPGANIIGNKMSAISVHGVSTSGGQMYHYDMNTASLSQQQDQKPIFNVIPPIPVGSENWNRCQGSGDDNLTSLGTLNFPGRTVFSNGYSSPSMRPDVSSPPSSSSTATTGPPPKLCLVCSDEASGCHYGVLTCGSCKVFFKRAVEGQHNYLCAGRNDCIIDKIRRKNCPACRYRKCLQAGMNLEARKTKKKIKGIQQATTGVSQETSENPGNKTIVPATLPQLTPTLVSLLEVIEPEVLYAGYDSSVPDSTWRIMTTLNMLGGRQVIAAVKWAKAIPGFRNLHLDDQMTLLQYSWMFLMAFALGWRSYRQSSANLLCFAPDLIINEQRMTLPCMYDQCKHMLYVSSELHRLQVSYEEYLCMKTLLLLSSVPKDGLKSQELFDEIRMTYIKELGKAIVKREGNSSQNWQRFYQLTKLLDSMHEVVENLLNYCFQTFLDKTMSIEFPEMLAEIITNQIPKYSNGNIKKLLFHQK
Method: The following is a description of a FP assay for measuring compound inhibition of labelled glucocorticoid binding to the human recombinant GR.
The binding affinity of test compounds was determined using a FP binding assay using human recombinant GR (PanVera P2812) and a fluorescent labelled glucocorticoid ligand (Fluorome GS Red) (PanVera P2894). The presence of inhibitors prevents the formation of a GS Red/GR complex resulting in a decrease in the measured polarisation value. The change in polarisation value in the presence of test compounds is used to calculate the binding affinity of the compound for GR.
This assay was performed in 384 well, black, round-bottom, polypropylene micro titre plates in a final volume of 20 μl. The assay contained 5 μl 1 nM GR (final concentration), 5 μl 0.5 nM Fluorome GS Red (final concentration) in the presence of 10p test compounds. Positive control wells (high polarisation) receive, 10 μl 2% (v:v) DMSO vehicle (1% (v/v) final concentration)+5 μl 1 nM GR and 5 μl 0.5 nM Fluorome GS Red. […] Assay blank background wells (used for normalisation) receive 15 μl 1×GS screening buffer+5 μl GR.
For the IC50 determination (concentration of compound that displaces 50% of the bound GS Red), compounds were tested at eight different concentrations in duplicate in two independently performed experiments. Compounds were prepared as solubilised solids at 10 mM in DMSO. On the day of assay, an 8 point half-log serial dilution (55 μl DMSO+25 μl compound solution) was prepared. A 1:50 dilution (1 μl compound solution+49 μl 1×GR screening buffer) was prepared for each compound. The compounds were prepared at 2× final assay concentration.
The plates were mixed and incubated for 4 hour at room temperature. FP was measured using an Envision Excite plate reader with 535 nm excitation and 590 nm emission interference filters.
Milli-polarisation (mP) values were calculated using the below equation: mP=1000*(S−G*P)/(S+G*P) where S and P are assay blank background subtracted fluorescence units, G=G-factor (1.07).
Compound IC50 values were calculated by plotting a [compound] v. % inhibition curve and fitting the data to a 4-parameter logistic fit equation.
10×GR screening buffer (100 mM potassium phosphate pH 7.4, 200 mM Na2MoO4, 1 mM EDTA, 20% (v/v) DMSO). To prepare 1×GR screening buffer, combine 1 ml 10×GR screening buffer (PanVera P2814)+1 ml stabilising peptide (PanVera P2815)+7.95 ml 4° C. MQ water. Add 50p 1M DTT, vortex and place on ice until use.

glucocorticoid receptor = target: T2, glucocorticoid receptor (Homo sapiens, UniProt P04150); assay: HepG2 Tyrosine Aminotransferase (TAT) Assay; type: cell-based
T2 construct: endogenous in cells; host or cells: HepG2
T2 sequence (P04150 1-777): T1 sequence (P04150 1-777)
Method: Glucocorticoid mediated activation of TAT occurs by transactivation of glucocorticoid response elements in the TAT promoter by glucocorticoid receptor-agonist complex.
HepG2 cells were cultured using MEME media supplemented with 10% (v/v) foetal bovine serum; 2 mM L-glutamine and 1% (v/v) NEAA at 37° C., 5%/95% (v/v) CO2/air.
Compounds were serially half log diluted in 100% (v/v) dimethylsulphoxide from a 10 mM stock.
HepG2 cells were then lysed with 30 μl of cell lysis buffer containing a protease inhibitor cocktail for 15 minutes at 4° C. […] After 2 hours incubation at 37° C. the reaction was terminated by the addition of 15 μl of 10 M aqueous potassium hydroxide solution, and the plates incubated for a further 30 minutes at 37° C.
[compound] and fitting the data to a 4 parameter logistic equation.

Row | Compound | Ki (human recombinant GR) [nM] | Ki (glucocorticoid receptor) [nM]
1 | CN1CCOc2cc(S(=O)(=O)N3CC[C@H]4Cc5c(cnn5-c5ccc(F)cc5)C[C@]4(C(=O)c4ccccn4)C3)cnc21 [Example 2V, ((4aR,8aS)-1-(4-fluorophenyl)-6-((4-methyl-3,4-dihydro-2H-pyrido[3,2-b][1,4]oxazin-7-yl)sulfonyl)-4,4a,5,6,7,8,8a,9-octahydro-1H-pyrazolo[3,4-g]isoquinolin-4a-yl)(pyridin-2-yl)methanone] | > 1 | 20 to 100
2 | O=C(c1nccs1)[C@]12Cc3cnn(-c4ccc(F)cc4)c3C[C@@H]1CCN(S(=O)(=O)c1ccc(C(F)(F)F)cc1)C2 [Example 2M, ((4aR,8aS)-1-(4-fluorophenyl)-6-((4-(trifluoromethyl)phenyl)sulfonyl)-4,4a,5,6,7,8,8a,9-octahydro-1H-pyrazolo[3,4-g]isoquinolin-4a-yl)(thiazol-2-yl)methanone] | > 1 | 20 to 100
3 | O=C(c1ccccn1)[C@]12Cc3cnn(-c4ccc(F)cc4)c3C[C@@H]1CCN(S(=O)(=O)c1ccc(F)c(F)c1)C2 [Example 1C, ((4aR,8aS)-6-((3,4-difluorophenyl)sulfonyl)-1-(4-fluorophenyl)-4,4a,5,6,7,8,8a,9-octahydro-1H-pyrazolo[3,4-g]isoquinolin-4a-yl)(pyridin-2-yl)methanone] | > 1 | 20 to 100
4 | Cn1nccc1S(=O)(=O)N1CC[C@H]2Cc3c(cnn3-c3ccc(F)cc3)C[C@]2(C(=O)c2cc(C(F)(F)F)ccn2)C1 [Example 2J, ((4aR,8aS)-1-(4-fluorophenyl)-6-((1-methyl-1H-pyrazol-5-yl)sulfonyl)-4,4a,5,6,7,8,8a,9-octahydro-1H-pyrazolo[3,4-g]isoquinolin-4a-yl)(4-(trifluoromethyl)pyridin-2-yl)methanone] | > 1 | 20 to 100
5 | N#Cc1cccc(S(=O)(=O)N2CC[C@H]3Cc4c(cnn4-c4ccc(F)cc4)C[C@]3(C(=O)c3ccccn3)C2)c1 [Example 2T, 3-(((4aR,8aS)-1-(4-fluorophenyl)-4a-picolinoyl-4a,5,7,8,8a,9-hexahydro-1H-pyrazolo[3,4-g]isoquinolin-6(4H)-yl)sulfonyl)benzonitrile] | > 1 | 20 to 100
6 | O=C(c1ccccn1)[C@]12Cc3cnn(-c4ccc(F)cc4)c3C[C@@H]1CCN(S(=O)(=O)c1cccc(C(F)(F)F)c1)C2 [Example 2G, ((4aR,8aS)-1-(4-fluorophenyl)-6-((3-(trifluoromethyl)phenyl)sulfonyl)-4,4a,5,6,7,8,8a,9-octahydro-1H-pyrazolo[3,4-g]isoquinolin-4a-yl)(pyridin-2-yl)methanone] | > 1 | 20 to 100
7 | O=C(c1ccccn1)[C@]12Cc3cnn(-c4ccc(F)cc4)c3C[C@@H]1CCN(S(=O)(=O)c1cccc(C(F)(F)F)n1)C2 [Example 2Q, ((4aR,8aS)-1-(4-fluorophenyl)-6-((6-(trifluoromethyl)pyridin-2-yl)sulfonyl)-4,4a,5,6,7,8,8a,9-octahydro-1H-pyrazolo[3,4-g]isoquinolin-4a-yl)(pyridin-2-yl)methanone] | 0.5 to 1 | < 20
8 | CC(C)n1cc(S(=O)(=O)N2CC[C@H]3Cc4c(cnn4-c4ccc(F)cc4)C[C@]3(C(=O)c3ccccn3)C2)nn1 [Example 2AF, ((4aR,8aS)-1-(4-fluorophenyl)-6-((1-isopropyl-1H-1,2,3-triazol-4-yl)sulfonyl)-4,4a,5,6,7,8,8a,9-octahydro-1H-pyrazolo[3,4-g]isoquinolin-4a-yl)(pyridin-2-yl)methanone] | > 1 | 20 to 100
9 | O=C(c1nccs1)[C@]12Cc3cnn(-c4ccc(F)cc4)c3C[C@@H]1CCN(S(=O)(=O)c1cccc(C(F)(F)F)n1)C2 [Example 2AG, ((4aR,8aS)-1-(4-fluorophenyl)-6-((6-(trifluoromethyl)pyridin-2-yl)sulfonyl)-4,4a,5,6,7,8,8a,9-octahydro-1H-pyrazolo[3,4-g]isoquinolin-4a-yl)(thiazol-2-yl)methanone] | 0.5 to 1 | 20 to 100
10 | CCn1cc(S(=O)(=O)N2CC[C@H]3Cc4c(cnn4-c4ccc(F)cc4)C[C@]3(C(=O)c3cc(C(F)(F)F)ccn3)C2)cn1 [Example 2K, ((4aR,8aS)-6-((1-ethyl-1H-pyrazol-4-yl)sulfonyl)-1-(4-fluorophenyl)-4,4a,5,6,7,8,8a,9-octahydro-1H-pyrazolo[3,4-g]isoquinolin-4a-yl)(4-(trifluoromethyl)pyridin-2-yl)methanone] | 0.5 to 1 | 20 to 100

The next lines start with the values.

Row | Ki (human recombinant GR) [nM] | Ki (glucocorticoid receptor) [nM] | Compound
11 | < 0.5 | < 20 | CCCn1ncc(S(=O)(=O)N2CC[C@H]3Cc4c(cnn4-c4ccc(F)cc4)C[C@]3(C(=O)c3ccccn3)C2)n1 [Example 2A, ((4aR,8aS)-1-(4-fluorophenyl)-6-((2-propyl-2H-1,2,3-triazol-4-yl)sulfonyl)-4,4a,5,6,7,8,8a,9-octahydro-1H-pyrazolo[3,4-g]isoquinolin-4a-yl)(pyridin-2-yl)methanone]
12 | < 0.5 | < 20 | CCCn1cc(S(=O)(=O)N2CC[C@H]3Cc4c(cnn4-c4ccc(F)cc4)C[C@]3(C(=O)c3ccccn3)C2)cn1 [Example 2B, ((4aR,8aS)-1-(4-fluorophenyl)-6-((1-propyl-1H-pyrazol-4-yl)sulfonyl)-4,4a,5,6,7,8,8a,9-octahydro-1H-pyrazolo[3,4-g]isoquinolin-4a-yl)(pyridin-2-yl)methanone]
13 | < 0.5 | < 20 | CC(C)n1ncc(S(=O)(=O)N2CC[C@H]3Cc4c(cnn4-c4ccc(F)cc4)C[C@]3(C(=O)c3cc(C(F)(F)F)ccn3)C2)n1 [Example 2AD, ((4aR,8aS)-1-(4-fluorophenyl)-6-((2-isopropyl-2H-1,2,3-triazol-4-yl)sulfonyl)-4,4a,5,6,7,8,8a,9-octahydro-1H-pyrazolo[3,4-g]isoquinolin-4a-yl)(4-(trifluoromethyl)pyridin-2-yl)methanone]
14 | < 0.5 | 20 to 100 | CCCn1ncc(S(=O)(=O)N2CC[C@H]3Cc4c(cnn4-c4ccc(F)cc4)C[C@]3(C(=O)c3cscn3)C2)n1 [Example 2S, ((4aR,8aS)-1-(4-fluorophenyl)-6-((2-propyl-2H-1,2,3-triazol-4-yl)sulfonyl)-4,4a,5,6,7,8,8a,9-octahydro-1H-pyrazolo[3,4-g]isoquinolin-4a-yl)(thiazol-4-yl)methanone]
15 | < 0.5 | < 20 | CCCn1cc(S(=O)(=O)N2CC[C@H]3Cc4c(cnn4-c4ccc(F)cc4)C[C@]3(C(=O)c3nccs3)C2)cn1 [Example 2E, ((4aR,8aS)-1-(4-fluorophenyl)-6-((1-propyl-1H-pyrazol-4-yl)sulfonyl)-4,4a,5,6,7,8,8a,9-octahydro-1H-pyrazolo[3,4-g]isoquinolin-4a-yl)(thiazol-2-yl)methanone]

From patent publication US12139486B2, “Octahydro fused azadecalin glucocorticoid receptor modulators” (Corcept Therapeutics, Inc., priority 2013, dated 2024)
